Laboratory results taken from US20250280826A1, “PLANT GROWTH PROMOTER” (KAO CORPORATION, priority 2022, published 2025).

Assays:
soybean = test: Example 2: soybean nodule activity (ureide in exudate) one week after foliar spray; format: in vivo
Protocol: Medium-term fertilizer effect type culture soil (Takii hydrous cell medium-term fertilizer effect type, Takii & Co., Ltd.) and vermiculite grains (Akagi-Engei Co., Ltd.) were mixed at a volume ratio of 1:1, and the soil was placed in a polypot (diameter: 10.5 cm, height: 9 cm). The soybean seeds used were “Enrei” (purchased from Nikko Seed Co. Ltd.). After tap water was supplied in an amount of 250 mL per pot, 2 seeds per pot were each sown at a depth of from about 1 to 2 cm from the soil surface. The number of repeats in each test plot was 6 (n=6).
1.5% agar (Wako Pure Chemical Industries, Ltd.) was added to Yeast-Mannitol (YM) medium (0.5 g of K2HPO4, 0.2 g of MgSO4-7H2O, 0.1 g of NaCl, 0.4 g of yeast extract, 10 g of mannitol, and 1 L of distilled water (pH: 6.8)) to prepare a solid medium, and a soybean Rhizobium (Bradyrhizobium japonicum) NBRC14783T strain was grown on the solid medium. A platinum loop of the grown Rhizobium was taken and inoculated in 50 mL of YM liquid medium in a Sakaguchi flask with a volume of 500 mL, and shake-cultured at 30° C. for about 36 hours. […]
Exudate components contained in the cotton balls were eluted with ultrapure water and filtered using Micro Biospin chromatography column (Bio-Rad Laboratories, Inc.). […] The 1 000-fold diluted filtrate was quantified. […]

Lotus japonicus = test: Example 8: number of pods and seed weight in Lotus japonicus; format: in vivo; settings: ascorbic acid 1,500 ppm, tap water vs deionized water
Protocol: Medium-term fertilizer effect type culture soil (Takii hydrous cell medium-term fertilizer effect type, Takii & Co., Ltd.) and vermiculite grains (Akagi-Engei Co., Ltd.) were mixed at a volume ratio of 1:1, and the soil was placed in a polypot (diameter: 6 cm, height: 5.5 cm).
The Lotus japonicus seeds used were Miyakojima MG-20 lineage. To a 2 mL microtube (Eppendorf) filled approximately ⅓ with the seeds, 1 mL of concentrated sulfuric acid (FUJIFILM Wako Pure Chemical Corporation) was added and allowed to stand for 10 minutes. After rinsing five times with tap water, the seeds were soaked for two hours. After tap water was supplied in an amount of 100 mL per pot, 3 seeds, which had undergone germination treatment, per pot were each sown at a depth of from about 1 to 2 cm from the soil surface. The number of repeats in each test plot was 8 (n=8). […]
For the preparation of the spraying solutions, BHT of the component (B) was previously dissolved in the component (C), and the components (C) and (D) were then mixed to prepare a second agent. […] The number of pods and seed weight of each plant were measured.

## O=C1O[C@H]([C@@H](O)CO)C(O)=C1O [ascorbic acid, (R)-3,4-dihydroxy-5-((S)-1,2-dihydroxyethyl)furan-2(5H)-one]
soybean; ascorbic acid 1,500 ppm dissolved in deionized water, soybean early growth stage
  nodule activity: increased
soybean; ascorbic acid 1,500 ppm dissolved in tap water
  application effect of ascorbic acid (nodule activity): tended to decrease
Lotus japonicus
  effects on the seed weight: varied in accordance with the water quality
